Assay results from patent US4985595A, “Aminobenzamide derivatives” (Daiichi Pharmaceutical Co., Ltd., priority 1984, dated 1991).
Read-outs that look alike come from different tables or passages of the source.

Legend:
[1] = system: stress ulcer in rat; experiment: Inhibitory effect on stress ulcer in rat (restraint and water-immersion stress method); format: in vivo; settings: read-out: Inhibitory Effect (%)
Experimental: INHIBITORY EFFECT ON STRESS ULCER IN RAT
The compounds of this invention were administered orally to 7 rats weighing about 300 g in each group. After 30 minutes, they were immobilized and immersed in water at 21° C. for 7 hours to prepare the stress ulcer.

[2] = in vivo; settings: mouse, po, mice, orally administered, read-out: acute toxicity (LD50)
[3] = disclosed in Japanese Patent Application (OPI) No. 18947/81; cited from earlier work
[4] = 50 mg/kg, oral, rat, 30 minutes before immobilization and immersion in water at 21° C. for 7 hours, *P < 0.05, **P < 0.01
[5] = 100 mg/kg, oral, rat, 30 minutes before immobilization and immersion in water at 21° C. for 7 hours, *P < 0.05, **P < 0.01
[6] = 200 mg/kg, oral, rat, 30 minutes before immobilization and immersion in water at 21° C. for 7 hours, *P < 0.05, **P < 0.01

Compound: COc1ccc(CCNC(=O)CN(CS(=O)(=O)[O-])c2cccc(C(N)=O)c2)cc1OC.[Na+]
- inhibition in vivo at 50 mg/kg ([1]; Rattus norvegicus, po, 7 h): 34%
- inhibition in vivo at 100 mg/kg ([1]; Rattus norvegicus, po, 7 h): 36%
- inhibition in vivo at 200 mg/kg ([1]; Rattus norvegicus, po, 7 h): 42%
- LD50 [2]: > 2000 mg/kg

Compound: CNC(=O)c1cccc(NCC(=O)NCCc2ccc(OC)c(OC)c2)c1 [Compound a]
- inhibition in vivo at 50 mg/kg [1, 4]: 46%
- inhibition in vivo at 100 mg/kg [1, 5]: 60%
- inhibition in vivo at 200 mg/kg [1, 6]: 72%

Compound: CCNC(=O)c1cccc(NCC(=O)NCCc2ccc(OC)c(OC)c2)c1 [Compound b, 3-((2-((2-(3,4-dimethoxyphenyl)ethyl)amino)-2-oxoethyl)amino)-N-ethylbenzamide]
- inhibition in vivo at 50 mg/kg [1, 4]: 30%
- inhibition in vivo at 100 mg/kg [1, 5]: 53%
- inhibition in vivo at 200 mg/kg [1, 6]: 63%

Compound: CNC(=O)c1ccc(OC)cc1NCC(=O)NCCc1ccc(OC)c(OC)c1 [Compound c, 2-((2-((2-(3,4-dimethoxyphenyl)ethyl)amino)-2-oxoethyl)amino)-4-methoxy-N-methylbenzamide]
- inhibition in vivo at 50 mg/kg [1, 4]: 33%
- inhibition in vivo at 100 mg/kg [1, 5]: 36%
- inhibition in vivo at 200 mg/kg [1, 6]: 69%
- LD50 [2]: > 2000 mg/kg

Compound: COc1ccc(CCNC(=O)CNc2cccc(C(=O)N(C)C)c2)cc1OC [Compound e, 3((2-((2-(3,4-Dimethoxyphenyl)ethyl)amino)-2-oxoethyl)amino)-N,N-dimethylenzamide]
- inhibition in vivo at 50 mg/kg [1, 4]: 39%
- inhibition in vivo at 100 mg/kg [1, 5]: 55%
- inhibition in vivo at 200 mg/kg [1, 6]: 64%

Compound: COc1ccc(CCNC(=O)CNc2cccc(C(=O)N3CCOCC3)c2)cc1OC [Compound f, N(2-(3,4-Dimethoxyphenyl)ethyl)-2-((3-morpholinocarbonylphenyl)amino)acetmide]
- inhibition in vivo at 50 mg/kg [1, 4]: 10%
- inhibition in vivo at 100 mg/kg [1, 5]: 53%
- inhibition in vivo at 200 mg/kg [1, 6]: 86%

Compound: CNC(=O)c1cc(OC)ccc1NCC(=O)NCCc1ccc(OC)c(OC)c1 [Compound g]
- inhibition in vivo at 50 mg/kg [1, 4]: 45%
- inhibition in vivo at 100 mg/kg [1, 5]: 41%
- inhibition in vivo at 200 mg/kg [1, 6]: 65%

Compound: COc1ccc(CCNC(=O)CNc2cccc(C(N)=O)c2)cc1OC.O.O.O [Control, 2-(3-carbamoylphenylamino)-N-(3,4-dimethoxyphenethyl)acetamide trihydrate]
- chemical and physical properties (stability) [3]: stable chemical and physical properties
